These results are taken from article PMC7821181, “MS Binding Assays for Glycine Transporter 2 (GlyT2) Employing Org25543 as Reporter Ligand” (Chemmedchem, 2020).

“And” between values parts separate entries of the source, which are not always exact repeats. Equal entries are not always repeated. “Also recorded” adds a separate entry of the source.

One test has as its system GlyT2. The settings on record: ref 23; read-out: IC50 in [3H]glycine uptake assay; cited from earlier work.
Another test concerns the target T1, hGlyT2 (Homo sapiens, UniProt Q9Y345).
T1 construct: host or cells: HEK293 cells stably expressing hGlyT2; crude membrane fractions
T1 sequence (Q9Y345 1-797): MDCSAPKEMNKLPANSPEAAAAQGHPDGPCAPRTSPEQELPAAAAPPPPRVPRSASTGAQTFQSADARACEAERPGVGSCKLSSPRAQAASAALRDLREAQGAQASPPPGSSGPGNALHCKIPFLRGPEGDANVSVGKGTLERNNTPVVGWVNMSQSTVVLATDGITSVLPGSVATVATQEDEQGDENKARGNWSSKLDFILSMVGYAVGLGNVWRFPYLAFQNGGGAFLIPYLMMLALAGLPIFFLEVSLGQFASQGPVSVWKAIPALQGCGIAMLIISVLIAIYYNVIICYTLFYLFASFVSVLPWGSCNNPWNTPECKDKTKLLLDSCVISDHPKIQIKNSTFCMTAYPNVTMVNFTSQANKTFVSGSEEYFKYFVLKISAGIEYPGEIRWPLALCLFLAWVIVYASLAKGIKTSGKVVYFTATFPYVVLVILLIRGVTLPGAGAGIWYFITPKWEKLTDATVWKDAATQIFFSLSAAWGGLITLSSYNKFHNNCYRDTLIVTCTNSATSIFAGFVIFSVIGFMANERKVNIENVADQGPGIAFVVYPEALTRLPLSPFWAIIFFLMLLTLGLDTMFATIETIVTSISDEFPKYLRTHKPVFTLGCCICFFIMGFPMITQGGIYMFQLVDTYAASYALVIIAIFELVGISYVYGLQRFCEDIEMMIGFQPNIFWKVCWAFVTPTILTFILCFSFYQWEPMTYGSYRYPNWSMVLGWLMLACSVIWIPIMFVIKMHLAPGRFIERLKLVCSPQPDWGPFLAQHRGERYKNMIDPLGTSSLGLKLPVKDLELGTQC
Nature of the test: GlyT2 MS Binding Assays: kinetic (dissociation and association) experiments. The procedure:
For the determination of the dissociation rate constant of Org25543 the so‐called displacer method was applied. Thus, after the target protein GlyT2 had been incubated with the reporter ligand Org25543 at a defined concentration (final concentration: 10 nM) and the binding allowed to reach equilibrium (1 h) dissociation was initiated by addition of 8 (final concentration: 30 μM). Overall, 12 samples were taken, the first after 15 s and the last after 3 h, and processed as described for competitive binding experiments. The same way nonspecific binding was determined except that the target protein had been subjected to a heat‐shock before. Plotting of specific binding calculated from total and nonspecific binding against time yielded the respective dissociation curves.
Next, for the determination of the association kinetics of Org25543 association experiments had to be performed. By the knowledge of [L] and k off, from k obs as the primary result of such experiments, finally, the derived rate constant k on becomes accessible by using the relation given at Equation 1, the transformed form of which is Equation 2. (1) kobs=kon×L+koff (2) kon=(kobs-koff)/L
For the determination of k obs Org25543 was added to the target protein, to start the association process, which was then stopped at eleven different time points (15 s–2 h), to measure the amount of bound marker at these defined time points. The nonspecific binding was determined for the same time points like for total binding samples but utilizing target material that had been subjected to a heat‐shock before. The concentration of the reporter ligand Org25543 was set to a value of 10 nM. […] For the establishment of association curves specific binding calculated from total binding and nonspecific binding was plotted against time.
Dissociation experiments via displacing Org25543 from GlyT2 with an excess of competitor were performed in 25 mL round bottom flasks made of glass (Duran Wheaton Kimble Life Sciences GmbH, Wertheim, Germany). For determining dissociation rate constants by the displacer approach GlyT2 membrane fractions were pre‐incubated with Org25543 at a nominal concentration of 10 nM at 37 °C in a water bath for 1 h in a total volume of 24.85 mL. The solution and the water bath were stirred constantly with magnetic stir bars at a frequency of ∼500 rpm. After 1 h of incubation dissociation was initiated by adding 150 μL of 8 resulting in […] of 30 μM. After defined time points (15 s–3 h, twelve dissociation time points, samples for each time point were prepared in triplicates) dissociation was terminated via vacuum filtration and the samples were treated the same way as described in Experimental Section MS Binding Assay: General procedure. Nonspecific binding was determined at the same time points as for the dissociation samples but incubating 10 nM Org25543 in the presence of 30 μM 8 and heat‐shocked GlyT2 membrane preparations (triplicate).

For `COc1cc(C(=O)NCC2(N(C)C)CCCC2)cc(OC)c1OCc1ccccc1` [Org25543, N‐[[1‐(dimethylamino)cyclopentyl]methyl]‐3,5‐dimethoxy‐4‐(phenylmethoxy)benzamide], the IC50 (usually the concentration that gives 50% inhibition) with GlyT2 was 16 ± 1.9 nM. Also, the Kd (as a rule, a measure of binding affinity in units of concentration) at hGlyT2 was 6.99 nM. In addition, the “k obs (observed association rate constant)” value on hGlyT2 (Org25543 10 nM, 37 °C, mean±SEM, n=3) is 1.72±0.01×10^−2 s^−1 and 1.72×10^−2 s^−1. Moreover, the koff at hGlyT2 (Org25543 10 nM, displacement by 30 μM 8, 37 °C, mean±SEM, n=3, read-out: k off (dissociation rate constant)) was determined as 0.00707 s⁻¹. For the same molecule, the kon at hGlyT2 (calculated as (k obs−k off)/L, read-out: k on (association rate constant)) is 1.01e+06 M⁻¹ s⁻¹. Besides, at hGlyT2 (dissociation experiments), the “reversibility of binding at GlyT2, in words” value is given as “fully reversible; also recorded: full reversibility”.
